How the values were obtained:
[1] = system: purified antibodies from hybridoma cell line LAM-JA; test: Competitive ELISA for terbinafine derivatives (crossreactivity); format: binding, mice; conditions: for Inhibition (%) at terbinafine concentration (μg/ml) 0.0001: competitor 0.0001 μg/ml; for Inhibition (%) at terbinafine concentration (μg/ml) 0.0001 / Inhibition (%) at terbinafine concentration (μg/ml) 0.001 / Inhibition (%) at terbinafine concentration (μg/ml) 0.01 / Inhibition (%) at terbinafine concentration (μg/ml) 0.1 / Inhibition (%) at terbinafine concentration (μg/ml) 1 / Inhibition (%) at terbinafine concentration (μg/ml) 10: mAb LAM-JA binding to terbinafine-BSA conjugate; for Inhibition (%) at terbinafine concentration (μg/ml) 0.001: competitor 0.001 μg/ml; for Inhibition (%) at terbinafine concentration (μg/ml) 0.01: competitor 0.01 μg/ml; for Inhibition (%) at terbinafine concentration (μg/ml) 0.1: competitor 0.1 μg/ml; for Inhibition (%) at terbinafine concentration (μg/ml) 1: competitor 1 μg/ml; for Inhibition (%) at terbinafine concentration (μg/ml) 10: competitor 10 μg/ml; for % crossreactivity: relative to terbinafine at B/B0=50%, calculated from FIG. 1, mAb LAM-JA
Text: The antibodies of the invention are screened and characterized in conventional manner, e.g. according to their ability to distinguish between terbinafine and its metabolites and derivatives, e.g. by determination of relative cross-reactivity. […] (1994), Stockton Press, p. 89). Relative crossreactivity is the concentration of analyte giving 50% at the point where the reduction in signal corresponds to 50% of the signal achieved in the absence of analyte (ratio B/B0 of 50%), as a percentage of the analyte concentration giving the same fall in signal.
Microtiter plates are coated with 5 μg/ml terbinafine hydrochloride—protein (BSA) conjugate in carbonate buffer overnight at 4°, then saturated with blocking reagent [SuperBloc® buffer (Pierce)] and washed 3× with 0.05% (v/v) PBS-TWEEN® (polyoxyethylene 20 sorbitan monoleate). The hybridoma supernatants to be screened are diluted in a 1% (w/v) solution of BSA in PBS-TWEEN® (polyoxyethylene 20 sorbitan monoleate), and incubated for 2 hours at 37°. Level of bound antibody is measured by anti-mouse IgG rabbit immunoglobulin coupled to horseradish peroxidase with OPD as the substrate. After incubation for one hour at room temperature the enzymatic substrate is hydrolyzed and absorbance at 490/650 nm is measured after 15 minutes incubation in the dark.
The direct ELISA according to Example 3 above is converted to a competitive ELISA wherein a competitor is added to the monoclonal antibody solution, and binding of the mAB to the conjugate in the presence and absence of the competitor is measured. Standard curves to determine cross-reactivity of a selected antibody to terbinafine and its derivatives are prepared using solutions containing known concentrations of terbinafine and appropriate derivatives (e.g. 10 μ/ml to 0.0001 μg/ml in buffer).
The result of such competitive assay for the purified antibodies from hybridoma cell line LAM-JA (where the immunogen used was carboxy-terbinafine coupled to OVA), is as follows:
The measurement of antibody response to substances other than the analyte is the crossreactivity. It may be “expressed as the point where the reduction in signal corresponds to 50% of the signal achieved in the absence of analyte (B/B0=50%), as a percentage of the analyte concentration giving the same fall in signal” [The Immunoassay Handbook, David Wild, Stockton Press, USA, 1994].
% crossreactivity is calculated as follows from FIG. 1: […]

[2] = HPLC and UV detection of terbinafine metabolites in the nail matrix; conditions: HPLC with UV detection
Text: Thus, in relation to the cross-reactivities of the antibodies of the invention with the above metabolites (see Example 4), no detection interferences are likely to be encountered with terbinafine in nails.

Row | SMILES | presence in the nail matrix [2] | Inhibition (%) at terbinafine concentration (μg/ml) 0.0001 [1] | Inhibition (%) at terbinafine concentration (μg/ml) 0.001 [1] | Inhibition (%) at terbinafine concentration (μg/ml) 0.01 [1] | Inhibition (%) at terbinafine concentration (μg/ml) 0.1 [1] | Inhibition (%) at terbinafine concentration (μg/ml) 1 [1] | Inhibition (%) at terbinafine concentration (μg/ml) 10 [1] | % crossreactivity [1]
1 | CC(C)(C#C/C=C/CNCc1cccc2ccccc12)C(=O)O [Desmethyl-carboxy-terbinafine, (E)-2,2-dimethyl-7-[(naphthalen-1-ylmethyl)amino]hept-5-en-3-ynoic acid] |  | 2.81% | 1.38% | 3.74% | 4.40% | 3.85% | 12.1% | not detectable
2 | CC(C)(C#C/C=C/CNCc1cccc2ccccc12)CO [Desmethyl-hydroxy-terbinafine, (E)-2,2-dimethyl-7-[(naphthalen-1-ylmethyl)amino]hept-5-en-3-yn-1-ol] | no hint for the presence | 3.60% | 0.79% | 1.60% | 5.30% | 15.7% | 58.0% | 4.5%
3 | CN(C/C=C/C#CC(C)(C)C)Cc1cccc2ccccc12 [Terbinafine ch, (E)-N-(6,6-dimethylhept-2-en-4-ynyl)-N-methyl-1-naphthalene methanamine] |  | 0.99% | −1.92% | 2.70% | 31.5% | 73.8% | 92.6% | 
4 | CC(C)(C)C#C/C=C/CNCc1cccc2ccccc12 [Desmethyl-terbinafine ch, (E)-N-(6,6-dimethylhept-2-en-4-ynyl)-1-naphthalenemethanamine] | measurable | −0.45% | −0.14% | 1.55% | 1.22% | 5.96% | 7.87% | not detectable

Further lines, with some results ahead:

Row | presence in the nail matrix [2] | SMILES | Inhibition (%) at terbinafine concentration (μg/ml) 0.0001 [1] | Inhibition (%) at terbinafine concentration (μg/ml) 0.001 [1] | Inhibition (%) at terbinafine concentration (μg/ml) 0.01 [1] | Inhibition (%) at terbinafine concentration (μg/ml) 0.1 [1] | Inhibition (%) at terbinafine concentration (μg/ml) 1 [1] | Inhibition (%) at terbinafine concentration (μg/ml) 10 [1] | % crossreactivity [1]
5 | no hint for the presence | CN(C/C=C/C#CC(C)(C)C(=O)O)Cc1cccc2ccccc12 [Carboxy-terbinafine, (E)-2,2-dimethyl-7-[methyl(naphthalen-1-ylmethyl)amino]hept-5-en-3-ynoic acid] | 0.85% | 2.11% | 4.30% | 25.8% | 63.8% | 89.2% | 
6 | no hint for the presence | CN(C/C=C/C#CC(C)(C)CO)Cc1cccc2ccccc12 [Hydroxy-terbinafine, (E)-2,2-dimethyl-7-[methyl(naphthalen-1-ylmethyl)amino]hept-5-en-3-yn-1-ol] | 0.40% | 0.56% | 3.74% | 72.5% | 92.9% | 93.0% | 

— US7122184B2, “Specific monoclonal antibody against terbinafine” (Novartis AG, priority 2000, dated 2006)
